Laboratory results taken from ChEMBL document CHEMBL3046208, “Natural and synthetic podolactones with potential use as natural herbicide models” (2000).
Active and inactive are the calls of the source. No cut-off for these calls is given here.

What was measured:
Format in all cases: functional
[1] = system: Hordeum vulgare; assay: Inhibition of germination of Hordeum vulgare (barley) at 0.1 mM after 5 days relative to untreated control; settings: 120 h
[2] = system: Lactuca sativa; assay: Stimulation of shoot length of Lactuca sativa cv. Roman (lettuce) at 0.1 mM after 5 days relative to untreated control
[3] = system: Hordeum vulgare; assay: Stimulation of shoot length of Hordeum vulgare (barley) at 0.1 mM after 5 days relative to untreated control
[4] = system: Solanum lycopersicum; assay: Stimulation of germination of Solanum lycopersicum (tomato) at 0.1 mM after 5 days relative to untreated control
[5] = system: Lactuca sativa; assay: Inhibition of shoot length of Lactuca sativa cv. Roman (lettuce) at 0.1 mM after 5 days relative to untreated control; settings: 120 h
[6] = system: Solanum lycopersicum; assay: Inhibition of root length of Solanum lycopersicum (tomato) at 0.1 mM after 5 days relative to untreated control; settings: 120 h
[7] = system: Lactuca sativa; assay: Stimulation of root length of Lactuca sativa cv. Roman (lettuce) at 0.1 mM after 5 days relative to untreated control
[8] = system: Hordeum vulgare; assay: Inhibition of shoot length of Hordeum vulgare (barley) at 0.1 mM after 5 days relative to untreated control
[9] = system: Lactuca sativa; assay: Inhibition of germination of Lactuca sativa cv. Roman (lettuce) at 0.1 mM after 5 days relative to untreated control; settings: 120 h
[10] = system: Allium cepa; assay: Inhibition of shoot length of Allium cepa (onion) at 0.1 mM after 5 days relative to untreated control; settings: 120 h
[11] = system: Lactuca sativa; assay: Inhibition of shoot length of Lactuca sativa cv. Nigra (lettuce) at 0.1 mM after 5 days relative to untreated control; settings: 120 h
[12] = system: Allium cepa; assay: Inhibition of root length of Allium cepa (onion) at 0.1 mM after 5 days relative to untreated control
[13] = system: Lepidium sativum; assay: Inhibition of shoot length of Lepidium sativum at 0.1 mM after 5 days relative to untreated control; settings: 120 h
[14] = system: Lactuca sativa; assay: Stimulation of shoot length of Lactuca sativa cv. Nigra (lettuce) at 0.1 mM after 5 days relative to untreated control
[15] = system: Triticum aestivum; assay: Inhibition of root length of Triticum aestivum (wheat) at 0.1 mM after 5 days relative to untreated control
[16] = system: Hordeum vulgare; assay: Stimulation of root length of Hordeum vulgare (barley) at 0.1 mM after 5 days relative to untreated control
[17] = system: Lactuca sativa; assay: Inhibition of root length of Lactuca sativa cv. Roman (lettuce) at 0.1 mM after 5 days relative to untreated control
[18] = system: Triticum aestivum; assay: Stimulation of root length of Triticum aestivum (wheat) at 0.1 mM after 5 days relative to untreated control
[19] = system: Lactuca sativa; assay: Stimulation of germination of Lactuca sativa cv. Nigra (lettuce) at 0.1 mM after 5 days relative to untreated control
[20] = system: Hordeum vulgare; assay: Inhibition of root length of Hordeum vulgare (barley) at 0.1 mM after 5 days relative to untreated control; settings: 120 h
[21] = system: Lactuca sativa; assay: Inhibition of germination of Lactuca sativa cv. Nigra (lettuce) at 0.1 mM after 5 days relative to untreated control; settings: 120 h
[22] = system: Solanum lycopersicum; assay: Stimulation of root length of Solanum lycopersicum (tomato) at 0.1 mM after 5 days relative to untreated control
[23] = system: Allium cepa; assay: Stimulation of germination of Allium cepa (onion) at 0.1 mM after 5 days relative to untreated control
[24] = system: Allium cepa; assay: Stimulation of shoot length of Allium cepa (onion) at 0.1 mM after 5 days relative to untreated control
[25] = system: Lepidium sativum; assay: Stimulation of root length of Lepidium sativum at 0.1 mM after 5 days relative to untreated control
[26] = system: Hordeum vulgare; assay: Stimulation of germination of Hordeum vulgare (barley) at 0.1 mM after 5 days relative to untreated control
[27] = system: Triticum aestivum; assay: Inhibition of germination of Triticum aestivum (wheat) at 0.1 mM after 5 days relative to untreated control
[28] = system: Lepidium sativum; assay: Inhibition of germination of Lepidium sativum at 0.1 mM after 5 days relative to untreated control
[29] = system: Lactuca sativa; assay: Stimulation of root length of Lactuca sativa cv. Nigra (lettuce) at 0.1 mM after 5 days relative to untreated control
[30] = system: Solanum lycopersicum; assay: Inhibition of germination of Solanum lycopersicum (tomato) at 0.1 mM after 5 days relative to untreated control
[31] = system: Lepidium sativum; assay: Stimulation of germination of Lepidium sativum at 0.1 mM after 5 days relative to untreated control
[32] = system: Triticum aestivum; assay: Stimulation of shoot length of Triticum aestivum (wheat) at 0.1 mM after 5 days relative to untreated control
[33] = system: Lactuca sativa; assay: Inhibition of root length of Lactuca sativa cv. Nigra (lettuce) at 0.1 mM after 5 days relative to untreated control; settings: 120 h
[34] = system: Allium cepa; assay: Inhibition of germination of Allium cepa (onion) at 0.1 mM after 5 days relative to untreated control
[35] = system: Triticum aestivum; assay: Inhibition of shoot length of Triticum aestivum (wheat) at 0.1 mM after 5 days relative to untreated control
[36] = system: Triticum aestivum; assay: Stimulation of germination of Triticum aestivum (wheat) at 0.1 mM after 5 days relative to untreated control
[37] = system: Lactuca sativa; assay: Stimulation of germination of Lactuca sativa cv. Roman (lettuce) at 0.1 mM after 5 days relative to untreated control
[38] = system: Hordeum vulgare; assay: Inhibition of germination of Hordeum vulgare (barley) at 10 nM after 5 days relative to untreated control; settings: 120 h
[39] = system: Lepidium sativum; assay: Inhibition of root length of Lepidium sativum at 0.1 mM after 5 days relative to untreated control; settings: 120 h
[40] = system: Allium cepa; assay: Stimulation of root length of Allium cepa (onion) at 0.1 mM after 5 days relative to untreated control
[41] = system: Lepidium sativum; assay: Stimulation of shoot length of Lepidium sativum at 0.1 mM after 5 days relative to untreated control
[42] = system: Solanum lycopersicum; assay: Inhibition of shoot length of Solanum lycopersicum (tomato) at 0.1 mM after 5 days relative to untreated control; settings: 120 h
[43] = system: Solanum lycopersicum; assay: Stimulation of shoot length of Solanum lycopersicum (tomato) at 0.1 mM after 5 days relative to untreated control

C[C@]1(C(=O)O)CCC[C@]2(C)C3=CC(=O)OC[C@]34O[C@@H]4C[C@@H]12
inhibition at 100 µM [1]: > 40%
Activity [2]: <20%
Activity [3]: inactive
Activity [4]: inactive
inhibition at 100 µM [5]: < 20%
inhibition at 100 µM [6]: 20%
Activity [7]: inactive
inhibition [8]: inactive
inhibition at 100 µM [9]: < 20%
inhibition at 100 µM [10]: < 20%
inhibition at 100 µM [11]: < 20%
inhibition [12]: inactive
inhibition at 100 µM [13]: 20%
Activity [14]: <20%
inhibition [15]: inactive
Activity [16]: 20%
inhibition [17]: inactive
Activity [18]: inactive
Activity [19]: <20%
inhibition at 100 µM [20]: 20%
inhibition at 100 µM [21]: < 20%
Activity [22]: 20%
Activity [23]: inactive
Activity [24]: <20%
Activity [25]: <20%
Activity [26]: >40%
inhibition [27]: inactive
inhibition [28]: inactive
Activity [29]: <20%
inhibition [30]: inactive
Activity [31]: inactive
Activity [32]: inactive
inhibition at 100 µM [33]: < 20%
inhibition [34]: inactive
inhibition [35]: inactive
Activity [36]: inactive
Activity [37]: <20%
inhibition at 0.01 µM [38]: -72%
inhibition at 100 µM [39]: < 20%
Activity [40]: inactive
Activity [41]: 20%
inhibition at 100 µM [42]: < 20%
Activity [43]: <20%
